# Laboratory results published in ChEMBL document CHEMBL3792365, “Dioxol and dihydrodioxin analogs of 2- and 3-phenylacetonitriles as potent anti-cancer agents with nanomolar activity against a variety of human cancer cells” (2016).
# Assays:
# Format in all cases: functional
# 786-0 = assay: Growth inhibition of human 786-0 cells at 10 uM after 48 hrs by sulforhodamine B assay; conditions: 786-0, 48 h, values are per cent of control
# [1] = Growth inhibition of human LOXIMVI cells at 10 uM after 48 hrs by sulforhodamine B assay; conditions: LOX IMVI, values are per cent of control
# [2] = Growth inhibition of human HCT116 cells at 10 uM after 48 hrs by sulforhodamine B assay; conditions: HCT-116, 48 h, values are per cent of control
# [3] = Growth inhibition of human NCI-ADR-RES cells at 10 uM after 48 hrs by sulforhodamine B assay; conditions: values are per cent of control
# [4] = Growth inhibition of human TK10 cells at 10 uM after 48 hrs by sulforhodamine B assay; conditions: TK-10, 48 h, values are per cent of control
# [5] = Growth inhibition of human HCT15 cells at 10 uM after 48 hrs by sulforhodamine B assay; conditions: HCT-15, 48 h, values are per cent of control
# SK-MEL-5 = assay: Growth inhibition of human SK-MEL-5 cells at 10 uM after 48 hrs by sulforhodamine B assay; conditions: SK-MEL-5, 48 h, values are per cent of control
# [6] = Growth inhibition of human SF268 cells at 10 uM after 48 hrs by sulforhodamine B assay; conditions: SF-268, 48 h, values are per cent of control
# NCI-H23 = assay: Growth inhibition of human NCI-H23 cells at 10 uM after 48 hrs by sulforhodamine B assay; conditions: NCI-H23, 48 h, values are per cent of control
# [7] = Growth inhibition of human SF539 cells at 10 uM after 48 hrs by sulforhodamine B assay; conditions: SF-539, 48 h, values are per cent of control
# A549 = assay: Growth inhibition of human A549/ATCC cells at 10 uM after 48 hrs by sulforhodamine B assay; conditions: A549, 48 h, values are per cent of control
# SK-MEL-28 = assay: Growth inhibition of human SK-MEL-28 cells at 10 uM after 48 hrs by sulforhodamine B assay; conditions: SK-MEL-28, 48 h, values are per cent of control
# [8] = Growth inhibition of human RXF393 cells at 10 uM after 48 hrs by sulforhodamine B assay; conditions: RXF 393, 48 h, values are per cent of control
# MDA-MB-231 = assay: Growth inhibition of human MDA-MB-231 cells at 10 uM after 48 hrs by sulforhodamine B assay; conditions: MDA-MB-231, 48 h, values are per cent of control
# [9] = Growth inhibition of human DU145 cells at 10 uM after 48 hrs by sulforhodamine B assay; conditions: DU-145, 48 h, values are per cent of control
# NCI-H522 = assay: Growth inhibition of human NCI-H522 cells at 10 uM after 48 hrs by sulforhodamine B assay; conditions: NCI-H522, 48 h, values are per cent of control
# [10] = Growth inhibition of human UO31 cells at 10 uM after 48 hrs by sulforhodamine B assay; conditions: UO-31, 48 h, values are per cent of control
# [11] = Growth inhibition of human COLO205 cells at 10 uM after 48 hrs by sulforhodamine B assay; conditions: COLO 205, 48 h, values are per cent of control
# NCI-H460 = assay: Growth inhibition of human NCI-H460 cells at 10 uM after 48 hrs by sulforhodamine B assay; conditions: NCI-H460, 48 h, values are per cent of control
# [12] = Growth inhibition of human IGROV1 cells at 10 uM after 48 hrs by sulforhodamine B assay; conditions: IGROV-1, 48 h, values are per cent of control
# [13] = Growth inhibition of human Hs 578T cells at 10 uM after 48 hrs by sulforhodamine B assay; conditions: values are per cent of control
# [14] = Growth inhibition of human OVCAR5 cells at 10 uM after 48 hrs by sulforhodamine B assay; conditions: OVCAR-5, 48 h, values are per cent of control
# [15] = Growth inhibition of human SF295 cells at 10 uM after 48 hrs by sulforhodamine B assay; conditions: SF-295, 48 h, values are per cent of control
# [16] = Growth inhibition of human Caki1 cells at 10 uM after 48 hrs by sulforhodamine B assay; conditions: CAKI-1, 48 h, values are per cent of control
# SK-MEL-2 = assay: Growth inhibition of human SK-MEL-2 cells at 10 uM after 48 hrs by sulforhodamine B assay; conditions: SK-MEL-2, 48 h, values are per cent of control
# HT-29 = assay: Growth inhibition of human HT-29 cells at 10 uM after 48 hrs by sulforhodamine B assay; conditions: HT-29, 48 h, values are per cent of control
# T47D = assay: Growth inhibition of human T47D cells at 10 uM after 48 hrs by sulforhodamine B assay; conditions: values are per cent of control
# [17] = Growth inhibition of human OVCAR4 cells at 10 uM after 48 hrs by sulforhodamine B assay; conditions: OVCAR-4, 48 h, values are per cent of control
# A498 = assay: Growth inhibition of human A498 cells at 10 uM after 48 hrs by sulforhodamine B assay; conditions: A498, 48 h, values are per cent of control
# ACHN = assay: Growth inhibition of human ACHN cells at 10 uM after 48 hrs by sulforhodamine B assay; conditions: values are per cent of control
# [18] = Growth inhibition of human OVCAR8 cells at 10 uM after 48 hrs by sulforhodamine B assay; conditions: OVCAR-8, 48 h, values are per cent of control
# [19] = Growth inhibition of human HCC2998 cells at 10 uM after 48 hrs by sulforhodamine B assay; conditions: HCC 2998, 48 h, values are per cent of control
# [20] = Growth inhibition of human UACC62 cells at 10 uM after 48 hrs by sulforhodamine B assay; conditions: UACC-62, 48 h, values are per cent of control
# M14 = assay: Growth inhibition of human M14 cells at 10 uM after 48 hrs by sulforhodamine B assay; conditions: M14, 48 h, values are per cent of control
# NCI-H322M = assay: Growth inhibition of human NCI-H322M cells at 10 uM after 48 hrs by sulforhodamine B assay; conditions: values are per cent of control
# SN12C = assay: Growth inhibition of human SN12C cells at 10 uM after 48 hrs by sulforhodamine B assay; conditions: values are per cent of control
# [21] = Growth inhibition of human SNB75 cells at 10 uM after 48 hrs by sulforhodamine B assay; conditions: SNB-75, 48 h, values are per cent of control
# [22] = Growth inhibition of human SKOV3 cells at 10 uM after 48 hrs by sulforhodamine B assay; conditions: SK-OV-3, 48 h, values are per cent of control
# [23] = Growth inhibition of human SW620 cells at 10 uM after 48 hrs by sulforhodamine B assay; conditions: SW-620, 48 h, values are per cent of control
# K562 = assay: Growth inhibition of human K562 cells at 10 uM after 48 hrs by sulforhodamine B assay; conditions: K562, 48 h, values are per cent of control
SMILES,"growth, % of control at 10 µM (786-0) [%]","growth, % of control at 10 µM [1] [%]","growth, % of control at 10 µM [2] [%]","growth, % of control at 10 µM [3] [%]","growth, % of control at 10 µM [4] [%]","growth, % of control at 10 µM [5] [%]","growth, % of control at 10 µM (SK-MEL-5) [%]","growth, % of control at 10 µM [6] [%]","growth, % of control at 10 µM (NCI-H23) [%]","growth, % of control at 10 µM [7] [%]","growth, % of control at 10 µM (A549) [%]","growth, % of control at 10 µM (SK-MEL-28) [%]","growth, % of control at 10 µM [8] [%]","growth, % of control at 10 µM (MDA-MB-231) [%]","growth, % of control at 10 µM [9] [%]","growth, % of control at 10 µM (NCI-H522) [%]","growth, % of control at 10 µM [10] [%]","growth, % of control at 10 µM [11] [%]","growth, % of control at 10 µM (NCI-H460) [%]","growth, % of control at 10 µM [12] [%]",other results
COc1ccc(/C=C(\C#N)c2ccc3c(c2)OCO3)cc1,50.3,33.3,17.4,11.6,32.2,17.8,16.4,38.5,43.2,-13.8,32.3,40.7,23.3,49.6,28.3,-2.4,28,11.9,15.5,46.3,"growth, % of control at 10 µM [13]: 27.2%; growth, % of control at 10 µM [14]: 49.6%; growth, % of control at 10 µM [15]: 11.2%; growth, % of control at 10 µM [16]: 24.8%; growth, % of control at 10 µM (SK-MEL-2): -17.7%; growth, % of control at 10 µM (HT-29): 6%; growth, % of control at 10 µM (T47D): 35.8%; growth, % of control at 10 µM [17]: 67.3%; growth, % of control at 10 µM (A498): -6.2%; growth, % of control at 10 µM (ACHN): 45.7%; growth, % of control at 10 µM [18]: 26.7%; growth, % of control at 10 µM [19]: 49.4%; growth, % of control at 10 µM [20]: 37.5%; growth, % of control at 10 µM (M14): 10.5%; growth, % of control at 10 µM (NCI-H322M): 35.7%; growth, % of control at 10 µM (SN12C): 37.2%; growth, % of control at 10 µM [21]: 2.2%; growth, % of control at 10 µM [22]: 28.8%; growth, % of control at 10 µM [23]: 19.6%; growth, % of control at 10 µM (K562): 15.8%"
COc1ccc(/C=C(\C#N)c2ccc3c(c2)OCO3)cc1OC,103,101,105,102,96.5,99.8,103,99.5,97.1,103,96.6,116,111,106,104,94.5,88,106,106,96.9,"growth, % of control at 10 µM [13]: 114%; growth, % of control at 10 µM [14]: 104%; growth, % of control at 10 µM [15]: 105%; growth, % of control at 10 µM [16]: 102%; growth, % of control at 10 µM (SK-MEL-2): 102%; growth, % of control at 10 µM (HT-29): 106%; growth, % of control at 10 µM (T47D): 88.7%; growth, % of control at 10 µM [17]: 110%; growth, % of control at 10 µM (A498): 96.5%; growth, % of control at 10 µM (ACHN): 111%; growth, % of control at 10 µM [18]: 104%; growth, % of control at 10 µM [19]: 106%; growth, % of control at 10 µM [20]: 114%; growth, % of control at 10 µM (M14): 106%; growth, % of control at 10 µM (NCI-H322M): 96.8%; growth, % of control at 10 µM (SN12C): 103%; growth, % of control at 10 µM [21]: 87.5%; growth, % of control at 10 µM [22]: 105%; growth, % of control at 10 µM [23]: 107%; growth, % of control at 10 µM (K562): 94.8%"
